Data set [1] can be described thus: in vitro skin permeation through the skin of a nude mouse.
Source text: All employed solutions are saturated.
The given values are average values which were obtained with saturated solutions.
Saturated solutions were used to achieve the respective maximal thermodynamic activities.
For data set [2] the following is noted: cited from earlier work.
The conditions of data set [3]: diffusion cell, cited from earlier work.
The conditions of data set [4]: after oral administration; cited from earlier work.
The conditions of data set [5]: healthy test persons, single dose 0.15 mg/kg i.v., cited from earlier work.
For data set [6] the following is noted: humans; cited from earlier work.
For another data set, the system named is nausea and emesis. As to conditions: cited from earlier work.

Structures can show the parent of a compound that is named as a salt. Where two headings read alike, the source gives them in different places.

As to `Cc1nccn1CC1CCc2c(c3ccccc3n2C)C1=O` (centres unmarked) [ondansetron hydrochloride], the “permeation compared with the free base” value in data set [1] (in combination with the described solvent mixture) is “permeates better than ondansetron in the form of the free, non-ionic base”. Moreover, the “amount permeated relative to a saturated aqueous solution” value in data set [1] (mixture of ethanol, tea tree oil and water vs saturated aqueous solution, after 24 hours) is “approximately 12 times”. Also, the “permeation through the skin (FIG. 2)” value in data set [1] (saturated aqueous solution) is given as “the results do not differ from those which were obtained using pure tea tree oil”. The entries for the “permeation through the skin (FIG. 1)” value in data set [1] (saturated solution in ethanol) and in data set [1] (saturated solution in tea tree oil alone) were “best permeation” and “insufficient permeation”, respectively. For the same compound, the amount permeated result in data set [1] (solution in a mixture of ethanol, tea tree oil and water, after 24 hours) was “approximately 1.2 mg per cm^2”. Further, the “flow of the active agent (FIG. 2)” value in data set [1] (solution in a mixture of ethanol, tea tree oil and water, first 4 to 5 hours) is reported as “extremely strong increase”. Moreover, in data set [2] (after oral administration), the “time until peak concentrations are present in the plasma” value is “Approximately 1 hour”. The average elimination half-life in data set [2] (healthy test persons) is 3.5 h; in data set [2] (older patients) it was “approximately 7.9 hours”.

For `Cc1cccc(CN2CCN(C)C[C@@H](NC(=O)c3n[nH]c4ccccc34)C2)c1.Cl.Cl` [(R)-(−)-N-(1-methyl-4-(3-methylbenzyl)hexahydro-1H-1,4-diazepin-6-yl)-1H-indazole-3-carboxamided.2HCl], the “flow of the active agent through the human epidermis” value in data set [3] (adhesive matrix of styrene-butadiene copolymer used as a comparison) is listed as 0.8 μg/cm^2/h; in data set [3] (two-phase matrix with 4 % active agent, calcium silicate, dimethyl siloxane adhesive (WO 9407468)), 17.1 μg/cm^2/h.

Take `Cc1nccn1CC1CCc2c(c3ccccc3n2C)C1=O` (racemic) [ondansetron, (±)-1,2,3,9-tetrahydro-9-methy-3-[(2-methyl-1H-imidazole-1-yl)methyl]-4H-carbazol-4-one monohydrochloride]: the bioavailability result in data set [4] is “approximately 50%”. Moreover, in data set [5] (age group 19-40 years), the average half-life is reported as 3.5 h, the peak concentration in plasma is 102 ng/mL and the plasma clearance is 0.38 L/h/kg. For the same compound, in data set [5] (age group 61-74 years), the average half-life was 4.7 h and the plasma clearance was 0.32 L/h/kg. Besides, in data set [5] (age group ≧75 years), the average half-life is given as 5.5 h and the plasma clearance is 0.26 L/h/kg. For the same compound, in data set [6], the “part of a radioactively marked dose found in urine” value is recorded as “approximately 5%”. Also, the “treatment of nausea and emesis” value in the data set on nausea and emesis (patients treated with anti-tumor drugs such as cisplatin derivatives) was “reliable in treating nausea and emesis”. For the same compound, the side effects entry with nausea and emesis (patients) is “headaches, diarrhea, and temporary abnormalities in liver function tests”.

The values above are taken from patent US6440453B1, “Transdermal systems for release of 5-HT3 receptor antagonists and their use in anti-emetic treatment” (Novosis Pharma AG, priority 1999, dated 2002).
